In ChEMBL document CHEMBL1133722 (J Med Chem, 2000):

How the values were obtained:
Type in all cases: cell-based, Cercopithecidae
[1] = target: T1, Mu-type opioid receptor (Homo sapiens, UniProt P35372); experiment: Binding affinity using [3H]diprenorphine as the radioligand against wild-type Opioid receptor mu 1 in COS-7 cells
[2] = target: Kappa-type opioid receptor (Homo sapiens, UniProt P41145, E297K); experiment: Binding affinity using [3H]diprenorphine as the radioligand against E297K mutant Opioid receptor kappa 1 in COS-7 cells
[3] = target: T2, Kappa-type opioid receptor (Homo sapiens, UniProt P41145); experiment: Binding affinity using [3H]diprenorphine as the radioligand against wild-type Opioid receptor kappa 1 in COS-7 cells
[4] = target: T1, Mu-type opioid receptor; experiment: Binding affinity using [3H]diprenorphine as the radioligand against K303E Opioid receptor mu 1 in COS-7 cells
[5] = target: Kappa-type opioid receptor (Homo sapiens, UniProt P41145, E297A); experiment: Binding affinity using [3H]diprenorphine as the radioligand against E297A mutant Opioid receptor kappa 1 in COS-7 cells
[6] = target: T2, Kappa-type opioid receptor; experiment: Binding affinity using [3H]diprenorphine as the radioligand against wild-type Opioid receptor kappa 1r in COS-7 cells

T1 sequence (P35372 whole entry): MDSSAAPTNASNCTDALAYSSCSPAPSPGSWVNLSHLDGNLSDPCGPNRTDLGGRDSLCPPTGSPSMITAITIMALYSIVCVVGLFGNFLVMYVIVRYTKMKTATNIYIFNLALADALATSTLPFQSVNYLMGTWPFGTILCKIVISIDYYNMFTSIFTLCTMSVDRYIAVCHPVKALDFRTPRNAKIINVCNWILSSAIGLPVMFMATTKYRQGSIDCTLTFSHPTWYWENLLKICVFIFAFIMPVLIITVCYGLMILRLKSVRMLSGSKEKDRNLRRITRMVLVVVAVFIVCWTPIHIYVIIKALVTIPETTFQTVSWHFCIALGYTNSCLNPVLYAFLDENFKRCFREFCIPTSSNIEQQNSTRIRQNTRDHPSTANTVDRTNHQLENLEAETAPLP
T2 sequence (P41145 whole entry): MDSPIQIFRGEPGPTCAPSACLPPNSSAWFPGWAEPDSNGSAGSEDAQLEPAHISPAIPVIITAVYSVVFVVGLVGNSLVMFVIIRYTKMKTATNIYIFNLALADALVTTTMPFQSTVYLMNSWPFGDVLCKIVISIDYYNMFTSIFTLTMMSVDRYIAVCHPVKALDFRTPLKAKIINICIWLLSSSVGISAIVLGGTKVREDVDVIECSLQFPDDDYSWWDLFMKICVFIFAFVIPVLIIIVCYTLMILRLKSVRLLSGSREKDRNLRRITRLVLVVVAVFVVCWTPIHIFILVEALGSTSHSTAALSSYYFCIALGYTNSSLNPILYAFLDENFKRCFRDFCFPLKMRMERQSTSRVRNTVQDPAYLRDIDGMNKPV
Sequence of Kappa-type opioid receptor (Homo sapiens, UniProt P41145, E297K) (P41145 whole entry E297K): as the sequence (P41145 whole entry) above, with E297K counted along it
Sequence of Kappa-type opioid receptor (Homo sapiens, UniProt P41145, E297A) (P41145 whole entry E297A): as the sequence (P41145 whole entry) above, with E297A counted along it

SMILES: CC(=O)N1CC[C@]23c4c5ccc(O)c4O[C@H]2c2[nH]c4c(c2C[C@@]3(O)[C@H]1C5)C[C@@]1(O)[C@H]2Cc3ccc(O)c5c3[C@@]1(CCN2CC1CC1)[C@H]4O5
- Ki [1]: 0.102 µM
- Ki [2]: 0.104 µM
- Ki [3]: 0.0236 µM
- Ki [4]: 0.042 µM
- Ki [5]: 0.104 µM

SMILES: CN1CC[C@]23c4c5ccc(O)c4O[C@H]2c2[nH]c4c(c2C[C@@]3(O)[C@H]1C5)C[C@@]1(O)[C@H]2Cc3ccc(O)c5c3[C@@]1(CCN2C)[C@H]4O5
- Ki [1]: > 1 µM
- Ki [2]: > 1 µM
- Ki [3]: 0.0217 µM
- Ki [4]: 0.0417 µM
- Ki [5]: > 1 µM

SMILES: CN1CC[C@]23c4c5ccc(O)c4O[C@H]2c2[nH]c4c(c2C[C@H]3[C@H]1C5)C[C@@]1(O)[C@H]2Cc3ccc(O)c5c3[C@@]1(CCN2CC1CC1)[C@H]4O5
- Ki [1]: 0.04 µM
- Ki [2]: 0.0399 µM
- Ki [3]: 0.00032 µM
- Ki [4]: 0.00016 µM
- Ki [5]: 0.0396 µM

SMILES: COc1ccc2c3c1O[C@H]1c4[nH]c5c(c4C[C@@]4(O)[C@@H](C2)N(CC2CC2)CC[C@]314)C[C@@]1(O)[C@H]2Cc3ccc(O)c4c3[C@@]1(CCN2CC1CC1)[C@H]5O4
- Ki [1]: 0.276 µM
- Ki [2]: 0.028 µM
- Ki [3]: 0.00039 µM
- Ki [4]: 0.0027 µM
- Ki [5]: 0.017 µM

SMILES: COc1ccc2c3c1O[C@H]1c4[nH]c5c(c4C[C@@]4(O)[C@@H](C2)N(CC2CC2)CC[C@]314)C[C@@]1(O)[C@H]2Cc3ccc(O)c4c3[C@@]1(CCN2C)[C@H]5O4
- Ki [1]: 0.165 µM
- Ki [2]: > 1 µM
- Ki [3]: 0.0363 µM
- Ki [4]: 0.052 µM
- Ki [5]: > 1 µM

SMILES: N=C(N)N1CC[C@]23c4c5ccc(O)c4O[C@H]2c2[nH]c4c(c2C[C@@]3(O)[C@H]1C5)C[C@@]1(O)[C@H]2Cc3ccc(O)c5c3[C@@]1(CCN2CC1CC1)[C@H]4O5
- Ki [6]: 0.00057 µM
- Ki [2]: 0.189 µM
